Assay results taken from publication PMC8480759, “Inhibitors of histone deacetylase 6 based on a novel 3-hydroxy-isoxazole zinc binding group” (Journal of Enzyme Inhibition and Medicinal Chemistry, 2021).

What was measured:
DU145 cells = assay: Anti-proliferative assay (MTT cell viability); assay type: cell-based, human; conditions: for effect on proliferation rate of DU145 cells: 50 µM, MTT, 24, 48, 72 h; for anti-proliferative activity at the lowest concentrations: DU145, late phases, lowest concentrations (tested 1, 5, 10, 50 µM)
Procedure: (§1) The results corroborate the inhibitory activity of 17, 23, 25 and 27 at concentrations lower than 10 µM. […] HDACs contribution to CRPC is known[20] and the possibility to arrest CRPC proliferation by acting on HDAC targets is expanding in the scientific literature[21]^,[22]. After administration of the selected compounds for 24 h at 10 µM concentration, the effect on the acetylation levels of histone H3 and α-tubulin (respectively, HDAC1 and HDAC6 targets) was investigated. […] Lastly, in the same cell line, the anti-proliferative effect was measured in dose and time dependent manner (Figure S4).
Figure S4. Cell viability assay (MTT) of the tested compounds in human prostate cancer cell lines (DU145). Cells were treated with 4 increasing concentrations (1, 5, 10, and 50 µM) of tested compounds, monitored at 24, 48, and 72 hours and tested with SAHA and Tubastatin A as reference compounds. Data are expressed as mean ± SEM. […]
1.5 Anti-proliferative assay
Cell viability was determined on DU145 cell line using Thiazolyl Blue Tetrazolium Bromide [3-(4,5-dimethylthiazol-2-yl)-2,5-diphenyltetrazolium bromide] (MTT; Sigma-Aldrich) assay after treatment with new compounds at indicated concentrations. A total of 2 × 10^4 cells/well were plated in a 96-well plate and treated, in duplicates, with new compounds at different concentrations for 24, 48, and 72 hours. Absorbance was read at a wavelength of 570 nm with a TECAN M-200 reader (Tecan, Männedorf, Switzerland).

[1] = tested on: acetylation levels of histone H3 (HDAC1 target) in DU145 cells; assay: Western blot of histone H3 acetylation in DU145 cells; assay type: cell-based, human; conditions: 24 h, 10 µM
Procedure: as §1
Figure S3. Western blotting analysis of the tested and reference compounds SAHA and Tubastatin A on acetylation levels of histone H3 and α-tubulin in DU145 cells. GAPDH and H4 were used as a loading control. Densitometric values were analyzed using ImageJ Software and are reported on the top of bands as the ratio between loading control and acetylated target.
(1 picture or pasted object on this page, not shown here) […]
1.4 Western blot analysis
The prostate cancer cell line DU145 (ATCC) was grown in RPMI medium (Euroclone, Milan, Italy) with 10% fetal bovine serum (Euroclone), 2 mM L-glutamine (Euroclone), and antibiotics (100 U/mL penicillin, […] streptomycin) (Euroclone). Cells were stimulated with drugs for […]
Total Protein Extraction and western blot
After the induction with the test compounds at the indicated times and concentrations, DU145 cells were then harvested, washed with phosphate-buffered saline (PBS) (Euroclone), and lysed for 15 min at 4 °C in lysis extraction buffer with protease and phosphatase inhibitors (50 mM Tris -HCl pH 8.0, 150 mM NaCl, 1% NP40, 10 mM sodium fluoride, 0.1 mM sodium orthovanadate, […] phenylmethylsulfonyl fluoride 58 (PMSF), 20 g/mL aprotinin, […] leupeptin, […] antipain, 10 mM p -nitrophenyl phosphate, […] pepstatin A and 20 nM okada ic acid). Cells were vortexed then centrifuged at 13000 rpm for 30 min at 4 °C. Bradford assay (Biorad, Italy) was used to quantify protein concentration. […] The immune complexes were first detected with horseradish peroxidase-conjugated species-specific secondary antiserum (Bio-Rad Laboratories, Milan, Italy), and then by an enhanced chemiluminescence reaction (Bio-Rad Laboratories, Milan, Italy). […]
were harvested and washed twice with cold 1× PBS and lysed in Triton extraction buffer (TEB; PBS containing 0.5% Triton X 100 (v/v), 2 mM PMSF, and 0.02% (w/v) NaN3) for 10 min on ice, with gentle stirring. […] The samples were then centrifuged at 2000 rpm for 10 min at 4 °C; the concentration of protein in the supernatant was determined […]
using a Bradford assay (Bio-Rad, CA, USA). […] Semi-quantitative analysis was performed using ImageJ software. […]

SMILES	effect on proliferation rate of DU145 cells (DU145 cells)	anti-proliferative activity at the lowest concentrations (DU145 cells)	effect on acetylation levels of histone H3 [1]
Oc1cc(-c2ccc3c(c2)OCO3)on1 [Compound 25]	reduced the proliferation rate	exerted anti-proliferative activity	no effect
Oc1cc(-c2ccc(NCc3ccccc3)cc2)on1 [Compound 23]	reduced the proliferation rate	exerted anti-proliferative activity	no effect
